From PubChem BioAssay (NCI)
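These data come from cells grown in 96-well plates and exposed to compound for 48 hours at five concentrations. GI50 is the concentration that inhibits growth by half. TGI marks complete inhibition of growth.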

What was measured:
Assay in all cases: DTP human tumour cell line panel, 48 h; in the data active = GI50 below about 0.43 µM; inactive = the rest
[1] = tested on: MDA-N
[2] = tested on: HOP-92 NSCLC
[3] = tested on: COLO 205 colon
[4] = tested on: TK-10 renal
[5] = tested on: NCI-H23 lung
[6] = tested on: MOLT-4 leukemia
[7] = tested on: A549 NSCLC
[8] = tested on: NCI-H522 lung
[9] = tested on: NCI-H226 lung
[10] = tested on: CCRF-CEM leukemia
[11] = tested on: OVCAR-4 ovarian
[12] = tested on: UACC-62 melanoma
[13] = tested on: HL-60(TB) leukemia
[14] = tested on: HT29 colon
[15] = tested on: SK-MEL-5 melanoma
[16] = tested on: OVCAR-5 ovarian
[17] = tested on: T-47D breast
[18] = tested on: SF-295 CNS
[19] = tested on: SK-MEL-28 melanoma
[20] = tested on: SNB-75 CNS
[21] = tested on: HOP-62 NSCLC
[22] = tested on: PC-3 prostate
[23] = tested on: MALME-3M melanoma
[24] = tested on: MDA-MB-231 breast
[25] = tested on: LOX IMVI melanoma
[26] = tested on: RXF 393 renal
[27] = tested on: SF-539 CNS
[28] = tested on: SN12C renal
[29] = tested on: NCI/ADR-RES ovarian
[30] = tested on: HCT-116 colon
[31] = tested on: HCC-2998 colon
[32] = tested on: HCT-15 colon
[33] = tested on: DU-145 prostate
[34] = tested on: SW-620 colon
[35] = tested on: MDA-MB-435
[36] = tested on: OVCAR-3 ovarian
[37] = tested on: SNB-19 CNS
[38] = tested on: A498 renal
[39] = tested on: U251 CNS
[40] = tested on: 786-0 renal
[41] = tested on: OVCAR-8 ovarian
[42] = tested on: EKVX NSCLC
[43] = tested on: SK-OV-3 ovarian
[44] = tested on: UO-31 renal
[45] = tested on: KM12 colon
[46] = tested on: K-562 leukemia
[47] = tested on: IGROV1 ovarian
[48] = tested on: SK-MEL-2 melanoma
[49] = tested on: CAKI-1 renal
[50] = tested on: ACHN renal
[51] = tested on: RPMI-8226 leukemia
[52] = tested on: UACC-257 melanoma
[53] = tested on: M14 melanoma
[54] = tested on: MCF7 breast
[55] = tested on: SR leukemia
[56] = tested on: NCI-H460 lung
[57] = tested on: BT-549 breast
[58] = tested on: SF-268 CNS

N=C1C=C/[N+](=C\C=CCO)C([O-])=N1
> 1000 µM: TGI [1]
inactive: GI50 [1] > 1000 µM

CCCCCCCCCCCCCCCCCCOP1(=O)OCCO1
> 100 µM: TGI [2] | TGI [3] | TGI [4] | TGI [5] | TGI [6] | TGI [7] | TGI [8] | TGI [9] | TGI [10] | TGI [11] | TGI [12] | TGI [14] | TGI [15] | TGI [16] | TGI [17] | TGI [18] | TGI [19] | TGI [20] | TGI [21] | TGI [1] | TGI [23] | TGI [24] | TGI [25] | TGI [27] | TGI [28] | TGI [29] | TGI [30] | TGI [31] | TGI [32] | TGI [33] | TGI [34] | TGI [35] | TGI [36] | TGI [37] | TGI [38] | TGI [39] | TGI [40] | TGI [41] | TGI [42] | TGI [43] | TGI [44] | TGI [45] | TGI [46] | TGI [47] | TGI [48] | TGI [49] | TGI [50] | TGI [51] | TGI [52] | TGI [53] | TGI [54]
75.3 µM: TGI [13]
83.9 µM: TGI [22]
75.4 µM: TGI [26]

Cc1ccc(S(=O)(=O)Nn2c(S)c(C#N)c(-c3ccc(N(C)C)cc3)c(C#N)c2=O)cc1
> 100 µM: TGI [2] | TGI [6] | TGI [7] | TGI [10] | TGI [12] | TGI [16] | TGI [18] | TGI [20] | TGI [55] | TGI [1] | TGI [24] | TGI [25] | TGI [31] | TGI [33] | TGI [37] | TGI [40] | TGI [42] | TGI [43] | TGI [46] | TGI [49] | TGI [50] | TGI [52] | TGI [53] | TGI [54]
60 µM: TGI [35]
90.5 µM: TGI [30]
76.2 µM: TGI [4]
52.2 µM: TGI [45]
37.8 µM: TGI [8]
44.9 µM: TGI [41]
55.6 µM: TGI [39]
45.3 µM: TGI [15]
39.3 µM: TGI [56]
67.8 µM: TGI [3]
37.7 µM: TGI [34]
68.2 µM: TGI [28]
91.5 µM: TGI [51]
44.8 µM: TGI [44]
67.3 µM: TGI [57]
79.6 µM: TGI [13]
56.5 µM: TGI [32]
88.3 µM: TGI [26]
34.6 µM: TGI [9]
43.1 µM: TGI [11]
80.6 µM: TGI [23] | TGI [38]
40.7 µM: TGI [27]
38.5 µM: TGI [47]
97.2 µM: TGI [29]
77.4 µM: TGI [19]
61.1 µM: TGI [5]

Cc1nn(-c2ccccc2)c2nc3c(c(C)nn3-c3ccccc3)c(-c3ccc(C(F)(F)F)cc3)c12
92.6 µM: TGI [20]
> 100 µM: TGI [2] | TGI [3] | TGI [4] | TGI [5] | TGI [6] | TGI [7] | TGI [9] | TGI [10] | TGI [11] | TGI [12] | TGI [13] | TGI [14] | TGI [15] | TGI [16] | TGI [17] | TGI [58] | TGI [18] | TGI [19] | TGI [21] | TGI [1] | TGI [22] | TGI [56] | TGI [24] | TGI [25] | TGI [26] | TGI [27] | TGI [28] | TGI [29] | TGI [30] | TGI [31] | TGI [32] | TGI [33] | TGI [34] | TGI [35] | TGI [36] | TGI [37] | TGI [38] | TGI [39] | TGI [40] | TGI [41] | TGI [42] | TGI [43] | TGI [44] | TGI [45] | TGI [46] | TGI [49] | TGI [50] | TGI [51] | TGI [52] | TGI [53] | TGI [54]

NC(Cc1ccc(O)c(O)c1)P(=O)(O)O (configuration not stated)
> 100 µM: TGI [2] | TGI [4] | TGI [5] | TGI [6] | TGI [7] | TGI [9] | TGI [11] | TGI [12] | TGI [14] | TGI [15] | TGI [16] | TGI [58] | TGI [18] | TGI [19] | TGI [20] | TGI [55] | TGI [1] | TGI [22] | TGI [56] | TGI [57] | TGI [23] | TGI [24] | TGI [26] | TGI [27] | TGI [28] | TGI [29] | TGI [30] | TGI [31] | TGI [32] | TGI [33] | TGI [35] | TGI [36] | TGI [37] | TGI [38] | TGI [39] | TGI [40] | TGI [41] | TGI [44] | TGI [45] | TGI [47] | TGI [48] | TGI [49] | TGI [50] | TGI [51] | TGI [52] | TGI [53]
68.6 µM: TGI [10]
43.2 µM: TGI [34]
45.7 µM: TGI [13]
42 µM: TGI [46]
95.7 µM: TGI [17]
20.1 µM: TGI [8]

CCc1nnc(CC)n1N1C(=O)CCC1=O
> 100 µM: TGI [2] | TGI [3] | TGI [4] | TGI [5] | TGI [6] | TGI [7] | TGI [8] | TGI [10] | TGI [11] | TGI [12] | TGI [14] | TGI [15] | TGI [16] | TGI [58] | TGI [18] | TGI [19] | TGI [20] | TGI [55] | TGI [21] | TGI [1] | TGI [22] | TGI [57] | TGI [24] | TGI [25] | TGI [26] | TGI [27] | TGI [28] | TGI [29] | TGI [30] | TGI [31] | TGI [32] | TGI [33] | TGI [34] | TGI [35] | TGI [36] | TGI [37] | TGI [39] | TGI [40] | TGI [41] | TGI [42] | TGI [43] | TGI [44] | TGI [45] | TGI [46] | TGI [47] | TGI [48] | TGI [50] | TGI [51] | TGI [52] | TGI [53] | TGI [54]
